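Step 1: Grow cells in 96-well plates. Step 2: Expose to compound for 48 hours at 5 concentrations. Step 3: Interpolate endpoints linearly; if unreached, use highest concentration. Here, GI50 denotes the concentration required for 50% inhibition of growth.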 The source made the active and inactive calls. Rule as the data show it: active = GI50 up to about 1.1 µM and inactive = higher.
Legend:
Test in all cases: NCI tumour cell line growth inhibition, 48 h
786-0 = test system: 786-0
ACHN = test system: ACHN
CAKI-1 = test system: CAKI-1
CCRF-CEM = test system: CCRF-CEM
HL-60 = test system: HL-60
HT-29 = test system: HT-29
LOX IMVI = test system: LOX IMVI
MDA-MB-231 = test system: MDA-MB-231
MDA-N = test system: MDA-N
OVCAR-3 = test system: OVCAR-3
OVCAR-4 = test system: OVCAR-4
RPMI-8226 = test system: RPMI-8226
RXF 393 = test system: RXF 393
SF-539 = test system: SF-539
SK-MEL-2 = test system: SK-MEL-2
SK-MEL-5 = test system: SK-MEL-5
SK-OV-3 = test system: SK-OV-3
SNB-75 = test system: SNB-75
T47D = test system: T47D
UACC-62 = test system: UACC-62

SMILES | GI50 (786-0) | GI50 (ACHN) | GI50 (CAKI-1) | GI50 (CCRF-CEM) | GI50 (HL-60) | GI50 (HT-29) | GI50 (LOX IMVI) | GI50 (MDA-MB-231) | GI50 (MDA-N) | GI50 (OVCAR-3) | GI50 (OVCAR-4) | GI50 (RPMI-8226) | GI50 (RXF 393) | GI50 (SF-539) | GI50 (SK-MEL-2) | GI50 (SK-MEL-5) | GI50 (SK-OV-3) | GI50 (SNB-75) | GI50 (T47D) | GI50 (UACC-62)
Fc1cc(F)c(F)c(S)c1F | > 100 µM (inactive) | > 100 µM (inactive) | > 100 µM (inactive) | 29.5 µM (inactive) | 30.1 µM (inactive) | 92.9 µM (inactive) | > 100 µM (inactive) | 22.1 µM (inactive) | > 100 µM (inactive) | > 100 µM (inactive) | 62.4 µM (inactive) | 31.3 µM (inactive) | 23.7 µM (inactive) | > 100 µM (inactive) | > 100 µM (inactive) | > 100 µM (inactive) | 65.6 µM (inactive) | > 100 µM (inactive) | > 100 µM (inactive) | > 100 µM (inactive)
Cc1ccc(-c2c3nc(c(-c4ccc(C)cc4)c4ccc([nH]4)c(-c4ccc(OCC5COC(C)(C)O5)cc4)c4nc(c(-c5ccc(C)cc5)c5ccc2[nH]5)C=C4)C=C3)cc1 (stereo not given) | > 31.6 µM (inactive) | > 31.6 µM (inactive) | > 100 µM (inactive) | > 10 µM (inactive) | > 10 µM (inactive) | > 31.6 µM (inactive) | > 31.6 µM (inactive) | > 31.6 µM (inactive) | > 31.6 µM (inactive) | > 31.6 µM (inactive) | > 31.6 µM (inactive) | > 100 µM (inactive) | > 10 µM (inactive) | > 31.6 µM (inactive) | > 31.6 µM (inactive) | > 31.6 µM (inactive) | > 10 µM (inactive) | 10.2 µM (inactive) | > 31.6 µM (inactive) | > 10 µM (inactive)
O=C(O)CCC(NC(=O)/C(=C/c1ccccc1)NC(=O)c1ccccc1)C(=O)O (stereo not given) | > 100 µM (inactive) | > 100 µM (inactive) | > 100 µM (inactive) | > 100 µM (inactive) | > 100 µM (inactive) | > 100 µM (inactive) | > 100 µM (inactive) | > 100 µM (inactive) | > 100 µM (inactive) | > 100 µM (inactive) | > 100 µM (inactive) | > 100 µM (inactive) | > 100 µM (inactive) | > 100 µM (inactive) | > 100 µM (inactive) | > 100 µM (inactive) | > 100 µM (inactive) | > 100 µM (inactive) | > 100 µM (inactive) | > 100 µM (inactive)
Cc1[nH]c2ccccc2c1/C=N/NC(=O)c1cccc(I)c1 | 20.7 µM (inactive) | 26.8 µM (inactive) | 18.2 µM (inactive) | 26 µM (inactive) | 26.9 µM (inactive) | 15.7 µM (inactive) | 15.7 µM (inactive) | 16.7 µM (inactive) | 22.1 µM (inactive) | 20.7 µM (inactive) | 16.1 µM (inactive) | 19.9 µM (inactive) | 17.5 µM (inactive) | 18.8 µM (inactive) | 19.2 µM (inactive) | 15.7 µM (inactive) | 32.2 µM (inactive) | 22.4 µM (inactive) | 14.8 µM (inactive) | 17.8 µM (inactive)
CCC(NC(C)c1ccccc1)C(O)c1ccc(OCc2ccccc2)c(OCc2ccccc2)c1 (stereo not given) | 13.5 µM (inactive) | 18 µM (inactive) | 11.9 µM (inactive) | 14.2 µM (inactive) | 13.8 µM (inactive) | 3.31 µM (inactive) | 12.1 µM (inactive) | 8.47 µM (inactive) | 15.3 µM (inactive) | 12 µM (inactive) | 16.4 µM (inactive) | 4.04 µM (inactive) | 8.65 µM (inactive) | 16.8 µM (inactive) | 14.9 µM (inactive) | 4.45 µM (inactive) | 15.5 µM (inactive) | 10.6 µM (inactive) | 15.1 µM (inactive) | 17.5 µM (inactive)
C/C(CC(O)(C(F)(F)F)C(F)(F)F)=N\O | > 10 µM (inactive) | > 10 µM (inactive) | > 10 µM (inactive) | > 10 µM (inactive) | > 10 µM (inactive) | > 10 µM (inactive) | > 10 µM (inactive) | > 10 µM (inactive) | > 10 µM (inactive) | > 10 µM (inactive) | > 10 µM (inactive) | > 10 µM (inactive) | > 10 µM (inactive) | > 10 µM (inactive) | > 10 µM (inactive) | > 10 µM (inactive) | > 10 µM (inactive) | > 10 µM (inactive) | > 10 µM (inactive) | > 10 µM (inactive)
COc1cc(-c2oc3c(OC)c(O)c(OC)c(O)c3c(=O)c2OC)cc(O)c1OC | 44.4 µM (inactive) | 50.6 µM (inactive) | 24.5 µM (inactive) | 28.9 µM (inactive) | 24.8 µM (inactive) | 30.8 µM (inactive) | 28.4 µM (inactive) | 46.2 µM (inactive) | 17.7 µM (inactive) | 24.7 µM (inactive) | > 100 µM (inactive) | 23.8 µM (inactive) | 27.1 µM (inactive) | 20.7 µM (inactive) | 55.1 µM (inactive) | 21.4 µM (inactive) | 16.4 µM (inactive) | 11 µM (inactive) | 32.8 µM (inactive) | 22.4 µM (inactive)
O=C1/C(=C/c2ccccc2)CN(C(=O)CCN2CCCC2)C/C1=C\c1ccccc1 | 0.895 µM (active) | 1.98 µM (inactive) | 3.98 µM (inactive) | 0.286 µM (active) | 0.298 µM (active) | 0.867 µM (active) | 0.687 µM (active) | 1.51 µM (inactive) | 0.426 µM (active) | 2.08 µM (inactive) | 1.57 µM (inactive) | 0.253 µM (active) | 2.33 µM (inactive) | 1.85 µM (inactive) | 2.77 µM (inactive) | 1.83 µM (inactive) | 8.26 µM (inactive) | 4.98 µM (inactive) | 1.76 µM (inactive) | 1.61 µM (inactive)
COc1cc(/C=C2\Cc3cc(OC)c(OC)cc3C2=O)cc(OC)c1 | 19.2 µM (inactive) | > 58.2 µM (inactive) | > 46.8 µM (inactive) | > 100 µM (inactive) | 3.18 µM (inactive) | > 100 µM (inactive) | > 55.7 µM (inactive) | 36.3 µM (inactive) | 0.771 µM (active) | > 92.3 µM (inactive) | > 45.4 µM (inactive) | > 33.6 µM (inactive) | 19.8 µM (inactive) | 13.1 µM (inactive) | > 60 µM (inactive) | 10.8 µM (inactive) | 17 µM (inactive) | 9.53 µM (inactive) | > 100 µM (inactive) | 14.2 µM (inactive)
Clc1ccc2oc(CCC3CCCCC3)nc2c1 | 28.2 µM (inactive) | 40.6 µM (inactive) | 24.7 µM (inactive) | 18.5 µM (inactive) | 16.3 µM (inactive) | 23.5 µM (inactive) | 4.7 µM (inactive) | 28.3 µM (inactive) | 33.3 µM (inactive) | 15.6 µM (inactive) | 27.4 µM (inactive) | 37.3 µM (inactive) | 15.1 µM (inactive) | 32.1 µM (inactive) | 19.1 µM (inactive) | 16.9 µM (inactive) | 26.1 µM (inactive) | 23 µM (inactive) | 20.5 µM (inactive) | 60.4 µM (inactive)
Cc1cc2c(O)c(c1)CN(Cc1ccccc1)Cc1cc(C)cc(c1O)CN(Cc1ccccc1)Cc1cc(C)cc(c1O)CN(Cc1ccccc1)C2 | > 100 µM (inactive) | > 100 µM (inactive) | > 100 µM (inactive) | > 100 µM (inactive) | > 100 µM (inactive) | > 100 µM (inactive) | > 100 µM (inactive) | > 100 µM (inactive) | > 100 µM (inactive) | > 100 µM (inactive) | > 100 µM (inactive) | > 100 µM (inactive) | 75.2 µM (inactive) | > 100 µM (inactive) | 32.3 µM (inactive) | > 100 µM (inactive) | > 100 µM (inactive) | 50.8 µM (inactive) | > 100 µM (inactive) | > 100 µM (inactive)
Cc1cn(C2C=CC(COP(=O)(OCc3ccc([N+](=O)[O-])o3)N(C)CCCCCl)O2)c(=O)[nH]c1=O (stereo not given) | 10.9 µM (inactive) | 15.3 µM (inactive) | 16 µM (inactive) | 5.43 µM (inactive) | 9.31 µM (inactive) | 11.7 µM (inactive) | 3.58 µM (inactive) | 12.1 µM (inactive) | 2.63 µM (inactive) | 1.75 µM (inactive) | 4.31 µM (inactive) | 2.69 µM (inactive) | 2.38 µM (inactive) | 3.72 µM (inactive) | 3.48 µM (inactive) | 1.22 µM (inactive) | 11.7 µM (inactive) | 1.58 µM (inactive) | 1.57 µM (inactive) | 4.56 µM (inactive)
CCC(=S)N(C)O | 11.6 µM (inactive) | 35.2 µM (inactive) | 81.8 µM (inactive) | 0.459 µM (active) | 1.48 µM (inactive) | 0.839 µM (active) | 10.6 µM (inactive) | 42.4 µM (inactive) | 35.9 µM (inactive) | 3.08 µM (inactive) | 9.53 µM (inactive) | 0.828 µM (active) | 25.9 µM (inactive) | 39.3 µM (inactive) | 29.4 µM (inactive) | 8.55 µM (inactive) | 76.9 µM (inactive) | 41 µM (inactive) | 46.1 µM (inactive) | 20 µM (inactive)
N#Cc1c(-c2ccccc2)nc(-c2ccccc2)sc1=S | > 100 µM (inactive) | > 100 µM (inactive) | > 100 µM (inactive) | 49.2 µM (inactive) | > 100 µM (inactive) | > 100 µM (inactive) | > 100 µM (inactive) | > 100 µM (inactive) | > 100 µM (inactive) | > 100 µM (inactive) | > 100 µM (inactive) | > 100 µM (inactive) | > 100 µM (inactive) | > 100 µM (inactive) | > 100 µM (inactive) | > 100 µM (inactive) | > 100 µM (inactive) | > 100 µM (inactive) | > 100 µM (inactive) | > 100 µM (inactive)

— ChEMBL document CHEMBL1201862, “PubChem BioAssay data set” (2004)
